Data reported in patent publication US12071453B2, “Neuroactive steroids, compositions, and uses thereof” (Sage Therapeutics, Inc., priority 2013, dated 2024).

Columns and labels:
[1] = target: [35S]-TBPS binding in rat brain cortical membranes; test: Steroid inhibition of [35S]-TBPS binding, rat brain cortical membranes; conditions: 3 nM [35S]-TBPS, in the presence of 5 μM GABA, read-out: 35S-TBPS Radioligand Displacement (IC50)
How it was run: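 Washed P2 cortical membranes from Sprague-Dawley rats were incubated 90 min at room temperature with 3 nM [35S]-TBPS, 5 μM GABA and test steroid (0.5% DMSO) in 200 mM NaCl/50 mM Na–K phosphate, pH 7.4. Nonspecific binding was defined with 2 μM unlabeled TBPS, and samples were filtered and counted. IC50 and Imax came from non-linear fits, reported as mean ± SEM.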

[2] = target: T1, GABAA receptors composed of the α1β2γ2 subunits (GABRA1/GABRB2/GABRG2) (Homo sapiens, UniProt P14867+P47870); test: Two Electrode Voltage Clamp (TEVC), GABA receptor potentiation in Xenopus laevis oocytes, α1β2γ2; format: cell-based; conditions: 10 μM compound, 10 μM GABA, read-out: GABA (α1β2γ2) % efficacy at 10 μM
T1 construct: expressed in transfected cells; host or cells: Xenopus laevis oocytes, injected (ratio 1:1:1)
T1 sequence (P14867 28-456): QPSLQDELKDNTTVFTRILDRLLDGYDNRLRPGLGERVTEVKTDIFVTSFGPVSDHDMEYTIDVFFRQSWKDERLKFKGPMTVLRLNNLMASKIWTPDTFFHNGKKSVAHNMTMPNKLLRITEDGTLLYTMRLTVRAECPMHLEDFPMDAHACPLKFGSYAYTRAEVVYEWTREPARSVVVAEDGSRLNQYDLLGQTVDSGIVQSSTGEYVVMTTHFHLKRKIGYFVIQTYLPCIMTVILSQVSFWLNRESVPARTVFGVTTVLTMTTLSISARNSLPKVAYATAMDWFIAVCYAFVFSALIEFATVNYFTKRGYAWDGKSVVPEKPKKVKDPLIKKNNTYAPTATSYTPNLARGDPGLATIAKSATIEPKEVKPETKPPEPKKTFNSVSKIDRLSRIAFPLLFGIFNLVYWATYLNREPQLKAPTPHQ
T1 sequence (P47870 26-512): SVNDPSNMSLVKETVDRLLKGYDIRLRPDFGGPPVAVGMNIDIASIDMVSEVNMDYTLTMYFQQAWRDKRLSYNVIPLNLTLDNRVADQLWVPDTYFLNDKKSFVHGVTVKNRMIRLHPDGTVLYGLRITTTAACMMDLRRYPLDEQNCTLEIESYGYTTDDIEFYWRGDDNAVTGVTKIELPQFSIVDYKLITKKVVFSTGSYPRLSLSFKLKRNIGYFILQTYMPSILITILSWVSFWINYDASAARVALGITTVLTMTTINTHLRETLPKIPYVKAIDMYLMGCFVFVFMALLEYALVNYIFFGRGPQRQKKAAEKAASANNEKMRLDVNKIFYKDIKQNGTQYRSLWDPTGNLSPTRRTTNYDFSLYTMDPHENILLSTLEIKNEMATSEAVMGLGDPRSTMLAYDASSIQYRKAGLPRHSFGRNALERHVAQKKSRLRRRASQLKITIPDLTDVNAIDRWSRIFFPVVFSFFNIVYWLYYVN
T1 sequence (P18507 40-475 partner): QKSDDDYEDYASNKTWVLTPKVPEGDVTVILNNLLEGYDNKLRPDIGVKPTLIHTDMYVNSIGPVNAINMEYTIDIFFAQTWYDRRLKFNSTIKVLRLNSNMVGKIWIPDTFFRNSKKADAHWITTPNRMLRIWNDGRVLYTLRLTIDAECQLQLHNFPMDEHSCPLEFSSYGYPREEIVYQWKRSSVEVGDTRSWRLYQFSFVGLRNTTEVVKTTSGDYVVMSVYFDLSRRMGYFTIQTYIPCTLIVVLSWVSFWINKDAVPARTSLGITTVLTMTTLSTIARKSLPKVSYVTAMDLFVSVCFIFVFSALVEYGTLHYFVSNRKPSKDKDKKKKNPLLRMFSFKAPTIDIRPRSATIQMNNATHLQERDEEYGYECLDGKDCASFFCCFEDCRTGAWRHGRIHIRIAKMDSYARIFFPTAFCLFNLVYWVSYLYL

[3] = target: T2, recombinant α1β2γ2 GABAA receptors (Homo sapiens, UniProt P14867+P47870); test: Patch clamp electrophysiology (QPatch) in LTK cells stably transfected with α1β2γ2; format: cell-based; conditions: 10 μM compound, 2 μM GABA (EC20), read-out: GABA (α1β2γ2) Qpatch in Ltk, % efficacy at 10 μM
T2 construct: expressed in transfected cells; host or cells: LTK cells, stably transfected
T2 sequence (P14867 28-456): as the sequence (P14867 28-456) above
T2 sequence (P47870 26-512): as the sequence (P47870 26-512) above
T2 sequence (P18507 40-475 partner): as the sequence (P18507 40-475 partner) above

[4] = target: T3, recombinant α4β3δ GABAA receptors (Homo sapiens, UniProt P28472+P48169); test: Manual patch clamp electrophysiology in CHO cells transiently transfected with α4β3δ; format: cell-based; conditions: 10 μM compound, 2 μM GABA (EC20), read-out: GABA (α4β3δ) Manual patch in CHO, % efficacy at 10 μM
T3 construct: expressed in transfected cells; host or cells: CHO cells, transiently transfected (Lipofectamine)
T3 sequence (P48169 36-554): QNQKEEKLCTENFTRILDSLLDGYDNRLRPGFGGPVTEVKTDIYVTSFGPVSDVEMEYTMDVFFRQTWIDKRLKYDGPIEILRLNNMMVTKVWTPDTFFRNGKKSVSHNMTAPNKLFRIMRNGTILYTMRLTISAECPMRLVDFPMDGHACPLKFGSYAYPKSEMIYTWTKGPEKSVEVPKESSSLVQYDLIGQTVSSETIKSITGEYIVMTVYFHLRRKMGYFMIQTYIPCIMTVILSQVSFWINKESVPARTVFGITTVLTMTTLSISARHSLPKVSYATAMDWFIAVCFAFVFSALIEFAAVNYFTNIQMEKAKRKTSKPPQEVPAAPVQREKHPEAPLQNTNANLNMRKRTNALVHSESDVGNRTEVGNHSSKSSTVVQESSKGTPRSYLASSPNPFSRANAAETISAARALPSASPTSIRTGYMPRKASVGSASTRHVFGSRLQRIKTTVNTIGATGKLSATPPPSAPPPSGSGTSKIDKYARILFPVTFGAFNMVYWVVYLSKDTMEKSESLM
T3 sequence (P28472 26-473): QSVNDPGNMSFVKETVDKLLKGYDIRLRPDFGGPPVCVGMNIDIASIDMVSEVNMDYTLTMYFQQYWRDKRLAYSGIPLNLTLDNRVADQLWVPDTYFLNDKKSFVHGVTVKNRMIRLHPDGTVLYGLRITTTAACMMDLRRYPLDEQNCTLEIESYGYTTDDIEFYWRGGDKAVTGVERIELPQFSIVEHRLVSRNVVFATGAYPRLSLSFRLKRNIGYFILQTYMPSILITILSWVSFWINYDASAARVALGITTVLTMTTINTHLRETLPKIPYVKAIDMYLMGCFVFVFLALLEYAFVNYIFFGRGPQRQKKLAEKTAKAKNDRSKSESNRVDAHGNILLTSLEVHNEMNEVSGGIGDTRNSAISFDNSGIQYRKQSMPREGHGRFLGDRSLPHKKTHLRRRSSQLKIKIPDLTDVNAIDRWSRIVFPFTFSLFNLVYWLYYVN
T3 sequence (O14764 25-452 partner): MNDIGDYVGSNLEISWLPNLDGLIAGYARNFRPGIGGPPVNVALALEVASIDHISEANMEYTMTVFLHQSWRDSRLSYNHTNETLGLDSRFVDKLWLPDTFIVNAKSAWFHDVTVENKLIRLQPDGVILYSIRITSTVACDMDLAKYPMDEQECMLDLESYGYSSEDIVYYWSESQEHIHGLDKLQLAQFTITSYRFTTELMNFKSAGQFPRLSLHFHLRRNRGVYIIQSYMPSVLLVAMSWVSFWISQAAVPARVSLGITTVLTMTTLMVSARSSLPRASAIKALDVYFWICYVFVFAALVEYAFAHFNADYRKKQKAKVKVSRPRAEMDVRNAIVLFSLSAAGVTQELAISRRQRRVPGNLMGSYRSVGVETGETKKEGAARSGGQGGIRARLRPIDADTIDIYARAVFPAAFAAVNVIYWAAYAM

For `COC[C@]12CC[C@@](C)(O)C[C@@H]1CC[C@H]1[C@@H]3CC[C@H](C(=O)Cn4ccnn4)[C@@]3(C)CC[C@@H]12` [Compound 3], the IC50 [1] was > 500 nM and the melting point was 72 to 74 °C.

For `COC[C@]12CC[C@@](C)(O)C[C@@H]1CC[C@H]1[C@@H]3CC[C@H](C(=O)CN4CCN(C)CC4)[C@@]3(C)CC[C@@H]12` [Compound 8], the IC50 [1] was > 500 nM and the melting point was 136 to 137 °C.

In the case of `COC[C@]12CC[C@@](C)(O)C[C@@H]1CC[C@H]1[C@@H]3CC[C@H](C(=O)Cn4cc(C#N)cn4)[C@@]3(C)CC[C@@H]12` [Compound 13], the IC50 [1] is reported as 50 to 100 nM, the Emax at 10 µM [2] is reported as 1000 to 1500% and the melting point is reported as 141 to 142 °C.

In the case of `COC[C@]12CC[C@@](C)(O)C[C@@H]1CC[C@H]1[C@@H]3CC[C@H](C(=O)Cn4ncnn4)[C@@]3(C)CC[C@@H]12` [Compound 14], the IC50 [1] is reported as 10 to 50 nM, the Emax at 10 µM [3] is reported as 100 to 500% and the Emax at 10 µM [4] is reported as > 500%. It also gave a melting point of 72 to 75 °C.

For `COC[C@]12CC[C@@](C)(O)C[C@@H]1CC[C@H]1[C@@H]3CC[C@H](C(=O)Cn4cnnn4)[C@@]3(C)CC[C@@H]12` [Compound 15], the IC50 [1] was 100 to 500 nM, the Emax at 10 µM [3] was > 500% and the Emax at 10 µM [4] was 100 to 500%. It also gave a melting point of 88 to 91 °C.

With `COC[C@]12CC[C@@](C)(O)C[C@H]1CC[C@H]1[C@@H]3CC[C@H](C(=O)Cn4cc(C#N)cn4)[C@@]3(C)CC[C@@H]12` [Compound 27] the IC50 [1] was < 10 nM, the Emax at 10 µM [2] was 1000 to 1500% and the melting point was 176 to 178 °C.

In the case of `COC[C@]12CC[C@@](C)(O)C[C@H]1CC[C@H]1[C@@H]3CC[C@H](C(=O)Cn4cc(Cl)cn4)[C@@]3(C)CC[C@@H]12` [Compound 34], the IC50 [1] is reported as < 10 nM, the Emax at 10 µM [2] is reported as 50 to 500% and the melting point is reported as 163 to 165 °C.

For `COC[C@]12CC[C@@](C)(O)C[C@@H]1CC[C@H]1[C@@H]3CC[C@H](C(=O)Cn4nc5ccc(Cl)cc5n4)[C@@]3(C)CC[C@@H]12` [Compound 35], the IC50 [1] was 10 to 50 nM, the Emax at 10 µM [3] was 100 to 500% and the Emax at 10 µM [4] was 100 to 500%.

Work on `COC[C@]12CC[C@@](C)(O)C[C@@H]1CC[C@H]1[C@@H]3CC[C@H](C(=O)Cn4nnc5ccc(Cl)cc54)[C@@]3(C)CC[C@@H]12` [Compound 36] yielded an IC50 [1] of 10 to 50 nM, an Emax at 10 µM [3] of 100 to 500% and an Emax at 10 µM [4] of 100 to 500%.

In the case of `COC[C@]12CC[C@@](C)(O)C[C@@H]1CC[C@H]1[C@@H]3CC[C@H](C(=O)Cn4nnc5cc(Cl)ccc54)[C@@]3(C)CC[C@@H]12` [Compound 37], the IC50 [1] is reported as 10 to 50 nM, the Emax at 10 µM [3] is reported as > 500% and the Emax at 10 µM [4] is reported as > 500%.

For `COC[C@]12CC[C@@](C)(O)C[C@@H]1CC[C@H]1[C@@H]3CC[C@H](C(=O)Cn4nc5ccc(F)cc5n4)[C@@]3(C)CC[C@@H]12` [Compound 43], the IC50 [1] was < 10 nM, the Emax at 10 µM [3] was > 500% and the Emax at 10 µM [4] was 100 to 500%.

In the case of `COC[C@]12CC[C@@](C)(O)C[C@@H]1CC[C@H]1[C@@H]3CC[C@H](C(=O)Cn4nnc5ccc(F)c(F)c54)[C@@]3(C)CC[C@@H]12` [Compound 52], the IC50 [1] is reported as 10 to 50 nM, the Emax at 10 µM [3] is reported as 100 to 500% and the Emax at 10 µM [4] is reported as > 500%.

For `COC[C@]12CC[C@@](C)(O)C[C@@H]1CC[C@H]1[C@@H]3CC[C@H](C(=O)Cn4nc5ccc(F)c(F)c5n4)[C@@]3(C)CC[C@@H]12` [Compound 54], the IC50 [1] was 10 to 50 nM, the Emax at 10 µM [3] was 100 to 500% and the Emax at 10 µM [4] was > 500%.

With `COC[C@]12CC[C@@](C)(O)C[C@@H]1CC[C@H]1[C@@H]3CC[C@H](C(=O)Cn4nc5cc(F)cc(F)c5n4)[C@@]3(C)CC[C@@H]12` [Compound 55] the IC50 [1] was 50 to 100 nM, the Emax at 10 µM [3] was > 500% and the Emax at 10 µM [4] was > 500%.

For `COC[C@]12CC[C@@](C)(O)C[C@H]1CC[C@H]1[C@@H]3CC[C@H](C(=O)Cn4nc5ccc(Cl)cc5n4)[C@@]3(C)CC[C@@H]12` [Compound 76], the IC50 [1] was < 10 nM, the Emax at 10 µM [3] was > 500% and the Emax at 10 µM [4] was > 500%.
